Reference: article PMC12363935, “Unc-51 Like Kinase 3 (ULK3) is essential for autophagy and cell survival in multiple myeloma” (Research Square, 2025)
Where “and” joins values, the source holds several entries; their conditions need not be identical. Equal entries are not always repeated.

Test system: primary CD138+ MM cells
Experiment: EMMA ex vivo platform, live cell imaging, 96 hours, collagen matrix with bone marrow stroma and patient plasma
Assay type: cell-based
Design: scale not given here
From the text: For clinical robustness, we tested the activity of MA9 in MM patient samples using our ex vivo mathematical myeloma advisor (EMMA) platform (Supplementary Table 1). […]
For these assays, we used a novel EMMA platform developed at Moffitt. Further details are included in the supplemental Materials. […]
400 Ex vivo drug sensitivity characterization
401 An ex vivo assay was used to quantify the chemosensitivity of primary MM cells. Fresh BM
402 aspirate cells were enriched for CD138+ expression using Miltenyi (Bergisch Gladbach, Germany)
MM cells (CD138+) were seeded in Corning
404 Cell BIND 384 well plates (Corning, NY) with collagen I and previously established human-
407 inactivated), penicillin/streptomycin, and patient-derived plasma (10%, freshly obtained from
409 added using a robotic plate handler so that every drug/combination was tested at 5 (fixed
410 concentration ratio, for combinations) concentrations (1:3 serial dilution) in two replicates.
411 Negative controls (supplemented growth media with and without the vehicle control dimethyl
412 sulfoxide [DMSO]) were included, as well as positive controls for each drug (cell line MM1.S at
413 highest drug concentration). Plates were placed in a motorized stage microscope (EVOS Auto FL,
414 Life Technologies, Carlsbad, CA) equipped with an incubator and maintained at 5% CO2 and 37
415 °C. […]
Digital image analysis computes the percent
418 viability of MM cells for each time point and experimental condition (drug and concentration)

Q: For `CC(C)C[C@H](NC(=O)[C@H](Cc1ccccc1)NC(=O)c1cnccn1)B(O)O` [BTZ, bortezomib], which AUC (Pt648, LRMM) is on record?
A: The AUC was 48.724.

Q: What about the AUC (Pt652, LRMM) of the same molecule?
A: Its AUC is 65.980.

Q: And the AUC (Pt655, LRMM)?
A: Its AUC is 29.968.

Q: And the AUC (Pt663, LRMM)?
A: Its AUC is 45.417.

Q: What about the AUC (Pt665, LRMM) of the same molecule?
A: The AUC was 47.552.

Q: What about the AUC (Pt666, LRMM) of the same molecule?
A: Its AUC is 37.470.

Q: What about the AUC (Pt669, ERMM) of the same molecule?
A: The AUC was 37.041.

Q: And the AUC (Pt672, NDMM)?
A: The AUC was 45.751.

Q: What about the AUC (Pt677, NDMM) of the same molecule?
A: Its AUC is 30.916 and 33.959.

Q: What about the AUC (Pt680, ERMM) of the same molecule?
A: Its AUC is 39.728 and 39.652.

Q: What about the AUC (Pt685, ERMM) of the same molecule?
A: The AUC was 34.249.

Q: What about the AUC (Pt689, NDMM) of the same molecule?
A: The AUC was 40.257.

Q: What about the AUC (Pt691, LRMM) of the same molecule?
A: The AUC was 38.965.

Q: What about the AUC (Pt693, SMOL) of the same molecule?
A: The AUC was 87.905.

Q: And the AUC (Pt694, NDMM)?
A: The AUC was 31.313.

Q: What about the AUC (Pt695, LRMM) of the same molecule?
A: Its AUC is 46.540.

Q: And the AUC (Pt697, NDMM)?
A: The AUC was 44.112.

Q: What about the AUC (Pt700, NDMM) of the same molecule?
A: Its AUC is 42.763 and 44.093.

Q: And the AUC (Pt707, LRMM)?
A: The AUC was 60.814.

Q: And the AUC (Pt737, MGUS)?
A: Its AUC is 35.864.

Q: What about the AUC (Pt738, NDMM) of the same molecule?
A: The AUC was 46.001.

Q: And the AUC (Pt740, SMOL)?
A: Its AUC is 32.547.

Q: What about the AUC (Pt745, NDMM) of the same molecule?
A: Its AUC is 47.650.

Q: What about the AUC (Pt852, NDMM) of the same molecule?
A: The AUC was 23.262.

Q: What about the AUC (Pt853, ERMM) of the same molecule?
A: The AUC was 63.604 and 64.834.

Q: And the AUC (Pt856, NDMM)?
A: The AUC was 36.749.

Q: And the AUC (Pt866, NDMM)?
A: The AUC was 36.635.

Q: What about the AUC (Pt875, NDMM) of the same molecule?
A: The AUC was 45.303.

Q: What about the AUC (Pt888, LRMM) of the same molecule?
A: The AUC was 100.000.

Q: And the AUC (Pt893, LRMM)?
A: Its AUC is 100.000.

Q: What about the AUC (Pt899, SMOL) of the same molecule?
A: Its AUC is 59.818.

Q: And the AUC (Pt906, NDMM)?
A: The AUC was 59.784.

Q: And the AUC (Pt909, LRMM)?
A: Its AUC is 29.196.

Q: What about the AUC (Pt912, PCL) of the same molecule?
A: The AUC was 26.800.

Q: And the AUC (Pt917, LRMM)?
A: The AUC was 78.984.

Q: And the AUC (Pt920, LRMM)?
A: The AUC was 42.040.

Q: What about the AUC (Pt923, LRMM) of the same molecule?
A: The AUC was 45.019.

Q: What about the AUC (Pt932, LRMM) of the same molecule?
A: The AUC was 28.145.

Q: And the AUC (Pt933, LRMM)?
A: Its AUC is 39.573.

Q: What about the AUC (Pt935, NDMM) of the same molecule?
A: The AUC was 31.629.

Q: What about the AUC (Pt936, LRMM) of the same molecule?
A: Its AUC is 45.292.

Q: What about the AUC (Pt937, NDMM) of the same molecule?
A: Its AUC is 46.111 and 46.768.

Q: What about the AUC (Pt940, LRMM) of the same molecule?
A: The AUC was 43.043.

Q: What about the AUC (Pt956, NDMM) of the same molecule?
A: Its AUC is 64.107 and 61.177.

Q: And the AUC (Pt957, LRMM)?
A: The AUC was 82.570.

Q: And the AUC (Pt961, NDMM)?
A: The AUC was 70.805 and 67.849.

Q: With `CC(C)C[C@H](NC(=O)[C@H](CCc1ccccc1)NC(=O)CN1CCOCC1)C(=O)N[C@@H](Cc1ccccc1)C(=O)N[C@@H](CC(C)C)C(=O)[C@@]1(C)CO1` [CFZ, carfilzomib] as the molecule, how does the AUC (Pt620, NDMM) read?
A: Its AUC is 36.78.

Q: And the AUC (Pt622, LRRMM)?
A: The AUC was 32.89.

Q: What about the AUC (Pt625, NDMM) of the same molecule?
A: Its AUC is 36.25.

Q: What about the AUC (Pt636, ERRMM) of the same molecule?
A: Its AUC is 53.52.

Q: And the AUC (Pt638, NDMM)?
A: Its AUC is 44.52.

Q: And the AUC (Pt639, NDMM)?
A: The AUC was 52.97.

Q: And the AUC (Pt648, LRMM)?
A: The AUC was 48.435.

Q: What about the AUC (Pt652, LRMM) of the same molecule?
A: Its AUC is 67.924.

Q: And the AUC (Pt653, LRMM)?
A: Its AUC is 60.160.

Q: What about the AUC (Pt655, LRMM) of the same molecule?
A: The AUC was 37.063 and 37.06.

Q: What about the AUC (Pt663, LRMM) of the same molecule?
A: Its AUC is 48.477 and 48.48.

Q: And the AUC (Pt665, LRMM)?
A: The AUC was 52.826 and 52.83.

Q: What about the AUC (Pt666, LRMM) of the same molecule?
A: Its AUC is 40.984 and 40.98.

Q: What about the AUC (Pt669, ERMM) of the same molecule?
A: Its AUC is 48.58.

Q: And the AUC (Pt672, NDMM)?
A: Its AUC is 56.496 and 56.5.

Q: What about the AUC (Pt677, NDMM) of the same molecule?
A: The AUC was 38.487 and 37.936.

Q: And the AUC (Pt680, ERMM)?
A: Its AUC is 43.762 and 43.248 and 43.76.

Q: And the AUC (Pt685, ERMM)?
A: The AUC was 44.316 and 44.32.

Q: What about the AUC (Pt689, NDMM) of the same molecule?
A: Its AUC is 43.578.

Q: What about the AUC (Pt691, LRMM) of the same molecule?
A: Its AUC is 40.781 and 40.78.

Q: And the AUC (Pt693, SMOL)?
A: Its AUC is 97.333 and 97.33.

Q: And the AUC (Pt694, NDMM)?
A: Its AUC is 49.029 and 49.03.

Q: What about the AUC (Pt695, LRMM) of the same molecule?
A: The AUC was 54.535 and 54.53.

Q: What about the AUC (Pt697, NDMM) of the same molecule?
A: The AUC was 45.229 and 45.23.

Q: And the AUC (Pt700, NDMM)?
A: The AUC was 48.455 and 54.337 and 54.34.

Q: What about the AUC (Pt707, LRMM) of the same molecule?
A: Its AUC is 60.754 and 60.75.

Q: What about the AUC (Pt718, SMOL) of the same molecule?
A: Its AUC is 58.31.

Q: What about the AUC (Pt737, MGUS) of the same molecule?
A: Its AUC is 45.483.

Q: And the AUC (Pt738, NDMM)?
A: The AUC was 52.453 and 52.45.

Q: What about the AUC (Pt740, SMOL) of the same molecule?
A: The AUC was 45.352.

Q: What about the AUC (Pt745, NDMM) of the same molecule?
A: Its AUC is 68.911.

Q: And the AUC (Pt765, LRRMM)?
A: Its AUC is 59.77.

Q: And the AUC (Pt773, LRRMM)?
A: Its AUC is 32.99.

Q: And the AUC (Pt808, LRRMM)?
A: The AUC was 47.11.

Q: What about the AUC (Pt814, LRRMM) of the same molecule?
A: The AUC was 62.23.

Q: And the AUC (Pt821, NDMM)?
A: The AUC was 54.79.

Q: What about the AUC (Pt822, ERRMM) of the same molecule?
A: The AUC was 62.96.

Q: And the AUC (Pt825, NDMM)?
A: The AUC was 59.86.

Q: And the AUC (Pt830, ERRMM)?
A: The AUC was 61.41.

Q: And the AUC (Pt849, LRRMM)?
A: The AUC was 99.06.

Q: What about the AUC (Pt852, NDMM) of the same molecule?
A: The AUC was 28.629.

Q: And the AUC (Pt853, ERMM)?
A: The AUC was 62.247 and 58.956.

Q: What about the AUC (Pt856, NDMM) of the same molecule?
A: The AUC was 48.272 and 48.27.

Q: What about the AUC (Pt865, LRMM) of the same molecule?
A: Its AUC is 60.759 and 60.76.

Q: What about the AUC (Pt866, NDMM) of the same molecule?
A: The AUC was 75.161 and 75.16.

Q: And the AUC (Pt875, NDMM)?
A: The AUC was 41.904 and 41.9.

Q: What about the AUC (Pt885, NDMM) of the same molecule?
A: The AUC was 51.382 and 45.860 and 51.38.

Q: What about the AUC (Pt888, LRMM) of the same molecule?
A: Its AUC is 51.003 and 51.

Q: What about the AUC (Pt893, LRMM) of the same molecule?
A: The AUC was 92.226.

Q: What about the AUC (Pt899, SMOL) of the same molecule?
A: Its AUC is 53.140.

Q: And the AUC (Pt906, NDMM)?
A: The AUC was 58.079 and 58.08.

Q: And the AUC (Pt909, LRMM)?
A: Its AUC is 32.841.

Q: And the AUC (Pt912, PCL)?
A: Its AUC is 23.632.

Q: And the AUC (Pt917, LRMM)?
A: The AUC was 75.009.

Q: And the AUC (Pt920, LRMM)?
A: The AUC was 39.820.

Q: And the AUC (Pt923, LRMM)?
A: The AUC was 54.728 and 54.73.

Q: And the AUC (Pt932, LRMM)?
A: The AUC was 43.433.

Q: What about the AUC (Pt933, LRMM) of the same molecule?
A: The AUC was 54.495 and 54.49.

Q: What about the AUC (Pt935, NDMM) of the same molecule?
A: Its AUC is 46.326 and 46.33.

Q: And the AUC (Pt936, LRMM)?
A: Its AUC is 50.956.

Q: What about the AUC (Pt937, NDMM) of the same molecule?
A: Its AUC is 51.703 and 49.814.

Q: And the AUC (Pt940, LRMM)?
A: Its AUC is 63.001.

Q: What about the AUC (Pt945, LRMM) of the same molecule?
A: Its AUC is 53.027.

Q: What about the AUC (Pt948, LRMM) of the same molecule?
A: The AUC was 57.94.

Q: And the AUC (Pt951, ERMM)?
A: Its AUC is 62.878 and 62.88.

Q: And the AUC (Pt956, NDMM)?
A: The AUC was 68.610 and 64.376.

Q: And the AUC (Pt957, LRMM)?
A: Its AUC is 82.913.

Q: And the AUC (Pt961, NDMM)?
A: The AUC was 64.332 and 67.807.
